Data as given in US20240124454A1, “TRICYCLIC COMPOUND AND USE THEREOF” (NANJING ZAIMING PHARMACEUTICAL CO., LTD., priority 2020, published 2024).
Read-outs that look alike come from different tables or passages of the source.

Experiments:
MAT2A = MAT2A (Homo sapiens (Human), UniProt P31153); experiment: MAT2A biochemical test (inorganic phosphate colorimetric, PiColorLock); conditions: read-out: MAT2A inhibitory Activity IC50
In short: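 Compounds tested from 10 μM top concentration in 3-fold dilutions, preincubated 120 min at room temperature with MAT2A ([…] final) in Tris/KCl/MgCl2/EDTA/BSA buffer. Reaction started with […] L-methionine and 400 μM ATP, run 90 min at room temperature; phosphate read by PiColorLock after 30 min. IC50 fitted from % inhibition versus no-enzyme and DMSO controls.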

HCT116 WT cells = experiment: Cell proliferation inhibition test (Cell-Titer Glo), HCT116 WT; type: cell-based, human; conditions: 6 days, read-out: HCT116 WT Antiproliferative activity IC50
In short: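 Cells seeded at 400 per well, overnight, then exposed 6 days at 37 °C to compound from 10 μM top final concentration in 3-fold dilutions. Viability by ATP luminescence (Cell-Titer Glo), normalised to medium-only and DMSO controls, IC50 by curve fitting.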

Sequence of MAT2A (P31153 whole entry): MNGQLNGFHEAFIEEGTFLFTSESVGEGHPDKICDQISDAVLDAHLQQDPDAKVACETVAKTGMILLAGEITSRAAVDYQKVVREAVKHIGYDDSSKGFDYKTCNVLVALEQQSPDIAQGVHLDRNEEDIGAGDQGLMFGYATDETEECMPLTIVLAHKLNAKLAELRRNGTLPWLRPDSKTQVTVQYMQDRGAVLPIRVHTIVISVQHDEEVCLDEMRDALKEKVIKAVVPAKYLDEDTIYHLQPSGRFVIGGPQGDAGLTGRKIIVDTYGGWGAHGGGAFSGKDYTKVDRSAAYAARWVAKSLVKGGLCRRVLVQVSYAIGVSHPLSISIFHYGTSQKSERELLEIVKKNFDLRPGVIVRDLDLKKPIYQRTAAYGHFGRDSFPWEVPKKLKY

SMILES | IC50 (MAT2A; class symbols) [nM] | IC50 (MAT2A; numeric values) [nM] | IC50 (HCT116 WT cells; Homo sapiens, HCT-116, 144 h) [nM] | IC50 (HCT116 WT cells) [nM]
Cc1ncccc1-n1c(=O)c2ncn(C)c2c2ccc(C(F)(F)F)nc21 (atropisomer, axis not shown) [Compound 20, 1-methyl-5-(2-methylpyridin-3-yl)-7-(trifluoromethyl)-1,5-dihydro-4H-imidazo[4,5-c][1,8]naphthyridin-4-one] | < 100 | 54.9 | 474 | –
Cn1cnc2c(=O)n(-c3cccnc3C3CC3)c3cc(Cl)ccc3c21 (single isomer, unassigned) [Compound 49-P2, 7-chloro-5-(2-cyclopropylpyridin-3-yl)-1-methyl-1,5-dihydro-4H-imidazo[4,5-c]quinolin-4-one] | < 100 | 18.7 | 488 | –
Cc1ncccc1-n1c(=O)c2ncoc2c2ccc(C(F)(F)F)nc21 [Compound 40, 5-(2-methylpyridin-3-yl)-7-(trifluoromethyl)oxazolo[4,5-c][1,8]naphthyridin-4(5H)-one] | < 100 | 43 | 414 | –
Cn1cnc2c(=O)n(-c3cccnc3C3CC3)c3cc(C(F)(F)F)ccc3c21 (single isomer, unassigned) [Compound 48-P2, 5-(2-cyclopropylpyridin-3-yl)-1-methyl-7-(trifluoromethyl)-1,5-dihydro-4H-imidazo[4,5-c]quinolin-4-one] | < 100 | 21.4 | > 10000 | –
Cn1cnc2c(=O)n(-c3cccc(F)c3Cl)c3cc(Cl)ccc3c21 [Compound 39, 7-chloro-5-(2-chloro-3-fluorophenyl)-1-methyl-1,5-dihydro-4H-imidazo[4,5-c]quinolin-4-one] | < 100 | 60.4 | – | 626
Cn1cnc2c(=O)n(-c3cccc(F)c3Cl)c3nc(C(F)(F)F)ccc3c21 (atropisomer, axis not shown) [Compound 25, 5-(2-chloro-3-fluorophenyl)-1-methyl-7-(trifluoromethyl)-1,5-dihydro-4H-imidazo[4,5-c][1,8]naphthyridin-4-one] | < 100 | 48 | 663 | –
Cn1cnc2c(=O)n(-c3cccc(F)c3Cl)c3nc(C(F)(F)F)ccc3c21 (single isomer, unassigned) [Compound 25-P2, 5-(2-chloro-3-fluorophenyl)-1-methyl-7-(trifluoromethyl)-1,5-dihydro-4H-imidazo[4,5-c][1,8]naphthyridin-4-one] | < 100 | 20.6 | 384 | –
O=c1c2ncoc2c2ccc(C(F)(F)F)nc2n1-c1cccnc1C1CC1 (single isomer, unassigned) [Compound 81-P2, 5-(2-cyclopropylpyridin-3-yl)-7-(trifluoromethyl)oxazolo[4,5-c][1,8]naphthyridin-4(5H)-one] | < 100 | 36.2 | 1340 | –
Cn1cnc2c(=O)n(-c3cccnc3C3CC3)c3nc(C(F)(F)F)ccc3c21 (single isomer, unassigned) [Compound 42-P2, 5-(2-cyclopropylpyridin-3-yl)-1-methyl-7-(trifluoromethyl)-1,5-dihydro-4H-imidazo[4,5-c][1,8]naphthyridin-4-one] | < 100 | 20.3 | 1320 | –
Cn1cnc2c(=O)n(-c3cccnc3C(F)(F)F)c3nc(C(F)(F)F)ccc3c21 (single isomer, unassigned) [Compound 41-P2, 1-methyl-7-(trifluoromethyl)-5-(2-(trifluoromethyl)pyridin-3-yl)-1,5-dihydro-4H-imidazo[4,5-c][1,8]naphthyridin-4-one] | < 100 | 22.3 | 3820 | –
Cc1ncccc1-n1c(=O)c2ncn(C)c2c2ccc(C(F)(F)F)cc21 [Compound 45, 1-methyl-5-(2-methylpyridin-3-yl)-7-(trifluoromethyl)-1,5-dihydro-4H-imidazo[4,5-c]quinolin-4-one] | < 100 | 47 | 902 | –
